Test results from paper PMC9463526 (Journal of Pharmaceutical Analysis, 2022).
Like-named read-outs stand apart in the source and are kept apart here.

Columns and labels:
[1] = Levels in intraoperatively collected CSF of GBM patients; assay type: in vivo; details: human, po, five GBM patients, oral LY3214996 200 mg once daily and abemaciclib 150 mg twice daily for 5 days, intraoperative CSF
Description: Blank brain and clinical brain tumor tissue homogenates were prepared at 1:9 (m/V) ratio with PBS. The samples were homogenized at a speed of 6.00 m/s for 40 s for three cycles using a Bead Ruptor Elite homogenizer (Omni International, Kennesaw, GA, USA). Plasma was used as a surrogate matrix when preparing calibration curves for brain and brain tumor homogenates and CSF as well as for the PBS fraction after sample dialysis. To minimize matrix differences, all plasma samples were spiked with PBS, while all non-plasma samples were spiked with plasma. Extraction of the analyte and IS was facilitated by protein precipitation using methanol-containing IS precipitation solution. Samples (70 μL) spiked with PBS or plasma were precipitated using 400 μL of IS precipitation solution. After centrifugation at 12,000 r/min for 10 min at 4 °C, the supernatant was transferred for LC-MS/MS analysis.
(§1) The validated bioanalytical method was employed to investigate analytes pharmacokinetics in the plasma, brain tumor, and CSF in GBM patients (ClinicalTrials.gov identifier: NCT04391595). The protocol was reviewed and approved by the Institutional Review Board of the Barrow Neurological Institute, St. Joseph's Hospital and Medical Center (Phoenix, AZ, USA). All patients enrolled in the trial provided written informed consent. […] Blood, CSF, and GBM tissue (including gadolinium-contrast enhancing and non-enhancing regions) samples were obtained intra-operatively from each patient on the […] on the planned operation day. Blood was centrifuged at 4 °C and 3,000 r/min for 10 min; plasma was subsequently collected. Brain tumors were resected 7–9 h after the last dose was administered. Once resected, the tissue samples were rinsed with PBS, paper dried, and freshly frozen in liquid nitrogen. The samples were then stored at −80 °C in a freezer for later analysis.

[2] = Equilibrium dialysis, fraction unbound in brain homogenate; assay type: in vitro ADME, human; details: for fraction unbound at 16 h: pH 7.4, human brain homogenate spiked at 20 and 200 nM, 16 h equilibrium dialysis, read-out: Fraction unbound (fu), Brain; for Plasma protein binding compared to binding to brain tissue components (ratio): spiked pooled human plasma vs human brain homogenate
Description: (§2) Equilibrium dialysis was employed to measure the fraction unbound of analytes in plasma, brain, and brain tumor tissue homogenates using 96-well DispoEquilibrium Dialyzer plates with a 10 kDa cut-off regenerated cellulose membrane. Dialysis was performed using 180 μL of human plasma or tissue homogenate against an equal volume of PBS (pH 7.4) in a dual-plate rotator (Harvard Apparatus, Holliston, MA, USA). Equilibrium time was initially optimized by analyzing samples after 2, 4, 6, 8, 16, and 24 h of dialysis at concentrations of 20 and 200 nM in human plasma and brain homogenate. The dialysates were collected and processed as described in Sections 2.3.2 and 2.3.3. The recovery of analytes was calculated as the ratio of analyte concentration after dialysis (sum of concentrations found in PBS and matrix fractions) to the total concentration to ensure the reliability and reproducibility of the assay. The experiments were repeated at least three times, and each sample in triplicate and average fraction unbound values were determined.
(§3) The fraction unbound in plasma (fu, plasma) and tissue homogenate (fu, hom) was evaluated as the analyte concentration ratio of post-dialysis PBS (cu) to post-dialysis plasma (cp, Eq. (1)) or homogenate (chom, Eq. (2)).(1) fu,plasma =cu/cp (2) fu,hom =cu/chom
(§4) The fraction unbound in the actual tissue (fu, tissue) was obtained by incorporating the unbound fraction in the tissue homogenate (fu, hom) and the dilution factor (Df) into Eq. (3).(3) fu,tissue = fu,hom/[Df - (Df - 1)fu,hom]

[3] = Analyte stability in brain homogenate; assay type: physicochemical, human; details: for Freeze-thaw stability, Accuracy / Freeze-thaw stability, Mean concentration / Freeze-thaw stability, Difference: 3 cycles; for Freeze-thaw stability, Difference / Benchtop stability, Difference / Processed sample stability, Difference / Autosampler stability (5 °C), Difference / Long-term stability (−20 °C), Difference: vs freshly processed QC; for Benchtop stability, Accuracy / Benchtop stability, Mean concentration / Benchtop stability, Difference: 6 h; for Processed sample stability, Accuracy / Processed sample stability, Mean concentration / Processed sample stability, Difference: 22 h; for Autosampler stability (5 °C), Accuracy / Autosampler stability (5 °C), Mean concentration / Autosampler stability (5 °C), Difference: 96 h; for Long-term stability (−20 °C), Mean concentration / Long-term stability (−20 °C), Difference / Long-term stability (−20 °C), Accuracy: 39 days
Description: The stability of the analytes was studied under various storage and processing conditions. […] Short- and long-term stability studies of all analytes were conducted in human blank plasma and brain homogenate under several storage conditions. Analyte stability in biological matrices was analyzed using freshly prepared calibration standards and QC samples. The percentage difference between the stability and freshly processed QC was also assessed. Re-injection reproducibility was evaluated within the sample stability period in the autosampler. Analytes were considered stable if the accuracy at each level was ±15.0% of the nominal value. Additionally, the difference from corresponding comparison QC samples must be within ±15.0%.

[4] = Equilibrium dialysis, fraction unbound in plasma; assay type: in vitro ADME, human; details: for fraction unbound at 16 h: pH 7.4, 16 h equilibrium dialysis
Description: as §2, §3
(§5) Unbound drug levels in the actual plasma and brain tumor tissue were measured using dialysis for 16 h to reach equilibrium. The mean of fraction unbound values determined in five patient samples was calculated.

[5] = Equilibrium dialysis, fraction unbound in patient brain tumor tissue; assay type: in vitro ADME; details: human, five patients, 16 h equilibrium dialysis
Description: as §2, §3, §4, §5, §1

[6] = human, plasma of five GBM patients, read-out: Fraction unbound (fu), Plasma (patients)
[7] = pooled human plasma spiked at 20 and 200 nM, read-out: Fraction unbound (fu), Plasma (pooled)
[8] = pH 7.4, gadolinium contrast enhancing GBM region, read-out: Fraction unbound (fu), GBM (E)
[9] = pH 7.4, gadolinium contrast non-enhancing GBM region, read-out: Fraction unbound (fu), GBM (NE)

| SMILES | concentration at 6 day (intra-operative) ([1]; read-out: Level in CSF (range)) | concentration at 6 day (intra-operative) ([1]; read-out: Median level in CSF) | fraction unbound at 16 h [2] | Freeze-thaw stability, Accuracy ([3]; HQC 400.0 nM) | Freeze-thaw stability, Mean concentration ([3]; HQC 400.0 nM) | Freeze-thaw stability, Difference ([3]; HQC 400.0 nM) | Freeze-thaw stability, Accuracy ([3]; LQC 0.6 nM) | Freeze-thaw stability, Mean concentration ([3]; LQC 0.6 nM) | Freeze-thaw stability, Difference ([3]; LQC 0.6 nM) | Benchtop stability, Accuracy ([3]; HQC 400.0 nM) | Benchtop stability, Mean concentration ([3]; HQC 400.0 nM) | Benchtop stability, Difference ([3]; HQC 400.0 nM) | Benchtop stability, Accuracy ([3]; LQC 0.6 nM) | Benchtop stability, Mean concentration ([3]; LQC 0.6 nM) | Benchtop stability, Difference ([3]; LQC 0.6 nM) | Processed sample stability, Accuracy ([3]; HQC 400.0 nM) | Processed sample stability, Mean concentration ([3]; HQC 400.0 nM) | Processed sample stability, Difference ([3]; HQC 400.0 nM) | Processed sample stability, Accuracy ([3]; LQC 0.6 nM) | Processed sample stability, Mean concentration ([3]; LQC 0.6 nM) | other results |
| --- | --- | --- | --- | --- | --- | --- | --- | --- | --- | --- | --- | --- | --- | --- | --- | --- | --- | --- | --- | --- | --- |
| Cn1nccc1Nc1nccc(-c2cc3c(s2)C(C)(C)N(CCN2CCOCC2)C3=O)n1 [LY3214996] | 49.7 to 118 nM | 95.5 nM | 0.065 | 103.2% | 412.9 nM | 1.1% | 101.4% | 0.608 nM | −7.9% | 101.7% | 406.7 nM | −1.5% | 110.2% | 0.661 nM | 0.2% | 102.3% | 409.3 nM | −0.9% | 112.3% | 0.674 nM | Plasma protein binding compared to binding to brain tissue components (ratio) [2]: at least 5.5 fold; Processed sample stability, Difference ([3]; LQC 0.6 nM): 2.1%; Autosampler stability (5 °C), Accuracy ([3]; HQC 400.0 nM): 105.2%; Autosampler stability (5 °C), Mean concentration ([3]; HQC 400.0 nM): 420.9 nM; Autosampler stability (5 °C), Difference ([3]; HQC 400.0 nM): 3.3%; Autosampler stability (5 °C), Accuracy ([3]; LQC 0.6 nM): 111.2%; Autosampler stability (5 °C), Mean concentration ([3]; LQC 0.6 nM): 0.667 nM; Autosampler stability (5 °C), Difference ([3]; LQC 0.6 nM): 4.4%; Long-term stability (−20 °C), Mean concentration ([3]; HQC 400.0 nM): 422.7 nM; Long-term stability (−20 °C), Difference ([3]; HQC 400.0 nM): 3.5%; Long-term stability (−20 °C), Accuracy ([3]; LQC 0.6 nM): 103.6%; Long-term stability (−20 °C), Mean concentration ([3]; LQC 0.6 nM): 0.622 nM; Long-term stability (−20 °C), Difference ([3]; LQC 0.6 nM): −5.9%; fraction unbound at 16 h [4, 6]: 0.406; fraction unbound at 16 h [4, 7]: 0.372; Plasma protein binding (in words) ([4]; pooled human plasma): modest plasma protein binding; fraction unbound at 16 h [5, 8]: 0.109; fraction unbound at 16 h [5, 9]: 0.06 |
| Cc1nc2c(F)cc(-c3nc(Nc4ccc(CN5CCNCC5)cn4)ncc3F)cc2n1C(C)C [M2] | 1.8 to 30.4 nM | 11.7 nM | 0.008 | 101.3% | 405.1 nM | −6.8% | 98.3% | 0.590 nM | −9.4% | 97.0% | 388.2 nM | −5.9% | 102.4% | 0.614 nM | 6.9% | 100.2% | 400.9 nM | −2.8% | 105.4% | 0.632 nM | Plasma protein binding compared to binding to brain tissue components (ratio) [2]: at least 6.5 fold; Processed sample stability, Difference ([3]; LQC 0.6 nM): 10.0%; Autosampler stability (5 °C), Accuracy ([3]; HQC 400.0 nM): 105.4%; Autosampler stability (5 °C), Mean concentration ([3]; HQC 400.0 nM): 421.6 nM; Autosampler stability (5 °C), Difference ([3]; HQC 400.0 nM): 6.2%; Autosampler stability (5 °C), Accuracy ([3]; LQC 0.6 nM): 102.4%; Autosampler stability (5 °C), Mean concentration ([3]; LQC 0.6 nM): 0.615 nM; Autosampler stability (5 °C), Difference ([3]; LQC 0.6 nM): 13.5%; Long-term stability (−20 °C), Accuracy ([3]; HQC 400.0 nM): 103.4%; Long-term stability (−20 °C), Mean concentration ([3]; HQC 400.0 nM): 413.6 nM; Long-term stability (−20 °C), Difference ([3]; HQC 400.0 nM): −4.8%; Long-term stability (−20 °C), Accuracy ([3]; LQC 0.6 nM): 98.3%; Long-term stability (−20 °C), Mean concentration ([3]; LQC 0.6 nM): 0.590 nM; Long-term stability (−20 °C), Difference ([3]; LQC 0.6 nM): −9.5%; fraction unbound at 16 h [4, 6]: 0.045; fraction unbound at 16 h [4, 7]: 0.052; fraction unbound at 16 h [5, 8]: 0.009; fraction unbound at 16 h [5, 9]: 0.006 |
| CCN1CCN(Cc2ccc(Nc3ncc(F)c(-c4cc(F)c5nc(CO)n(C(C)C)c5c4)n3)nc2)CC1 [M20] | 3.1 to 58.1 nM | 12.7 nM | 0.021 | 108.7% | 434.9 nM | 1.4% | 108.5% | 0.651 nM | −1.5% | 93.7% | 375.0 nM | −4.4% | 100.0% | 0.6 nM | 2.3% | 97.8% | 391.1 nM | −0.2% | 100.5% | 0.603 nM | Processed sample stability, Difference ([3]; LQC 0.6 nM): 2.7%; Autosampler stability (5 °C), Accuracy ([3]; HQC 400.0 nM): 100.3%; Autosampler stability (5 °C), Mean concentration ([3]; HQC 400.0 nM): 401.3 nM; Autosampler stability (5 °C), Difference ([3]; HQC 400.0 nM): 2.7%; Autosampler stability (5 °C), Accuracy ([3]; LQC 0.6 nM): 101.9%; Autosampler stability (5 °C), Mean concentration ([3]; LQC 0.6 nM): 0.612 nM; Autosampler stability (5 °C), Difference ([3]; LQC 0.6 nM): 10.3%; Long-term stability (−20 °C), Accuracy ([3]; HQC 400.0 nM): 112.0%; Long-term stability (−20 °C), Mean concentration ([3]; HQC 400.0 nM): 448.1 nM; Long-term stability (−20 °C), Difference ([3]; HQC 400.0 nM): 4.5%; Long-term stability (−20 °C), Accuracy ([3]; LQC 0.6 nM): 105.9%; Long-term stability (−20 °C), Mean concentration ([3]; LQC 0.6 nM): 0.635 nM; Long-term stability (−20 °C), Difference ([3]; LQC 0.6 nM): −3.9%; fraction unbound at 16 h [4, 6]: 0.023; fraction unbound at 16 h [4, 7]: 0.024; fraction unbound at 16 h [5, 8]: 0.022; fraction unbound at 16 h [5, 9]: 0.017 |
